According to patent US7414048B2, “4,5-dihydro-isoxazole derivatives and their pharmaceutical use” (Janssen Pharmaceutica, N.V., priority 1998, dated 2008):

Test system: T cell blast formation in human blood
Test: In vitro inhibition of T cell blast formation in human blood (human whole blood blast formation, PHA stimulated, flow cytometry)
Assay type: cell-based
Settings: 72 hours, mean where multiple measurements
Method: Cells are collected after a 72 hours culture period at 37° C., supernatant is removed by centrifugation and red blood cells are lysed by a hypotonic buffer. The remaining white blood cells are collected in PBS containing propidium iodide. The blast formation is analyzed using a benchtop flow cytometer (Cytoron, Ortho) equipped with an argon-ion laser. […] When multiple measurements were performed, a mean value was calculated for the percentage inhibition of T cell blast formation.

[1] = Test Dose 3 × 10^−7 (unit not given)
[2] = Test Dose 1 × 10^−7 (unit not given)
[3] = Test Dose 1 × 10^−6 (unit not given)
[4] = Test Dose 1 × 10^−5 (unit not given)

Structure (SMILES)	% Inhibition of T cell blast formation [1]	% Inhibition of T cell blast formation [3]	also measured
COc1cc(C(=NO)c2ccc(NC(=O)C3CC(c4cccnc4)=NO3)cc2)cc(OC)c1OC (centres unmarked) [Compound 436]	78%		
COc1ccc(C(=NO)c2ccc(NC(=O)C3CC(c4cccnc4)=NO3)cc2)cc1OC (centres unmarked) [Compound 437]	75%		
COc1ccc(C(=NO)c2ccc(NC(=O)C3CC(c4cccnc4)=NO3)cc2)c(OC)c1 (centres unmarked) [Compound 438]			% Inhibition of T cell blast formation [2]: 82%
O=C(Nc1ccc(C(=NO)c2ccccn2)cc1)C1CC(c2cccnc2)=NO1 (centres unmarked) [Compound 439]		79%	
COc1ccc(OC)c(C(=NO)c2ccc(NC(=O)C3CC(c4cccnc4)=NO3)cc2)c1 (centres unmarked) [Compound 440]			% Inhibition of T cell blast formation [2]: 77%
COC(C(N)=O)(c1ccccc1)c1ccc(NC(=O)C2CC(c3cccnc3)=NO2)cc1 (centres unmarked) [Compound 442]		75%	
O=C(Cc1ccc(NC(=O)C2CC(c3cccnc3)=NO2)cc1)Nc1ccccc1 (centres unmarked) [Compound 451]	80%		
O=C(Nc1ccc(-c2noc(-c3ccccc3)n2)cc1)C1CC(c2cccnc2)=NO1 (centres unmarked) [Compound 452]		79%	
O=C(Nc1ccc(-c2nc(-c3ccccc3)no2)cc1)C1CC(c2cccnc2)=NO1 (centres unmarked) [Compound 453]		61%	
O=C(Nc1ccc(-c2nc(-c3ccccc3)cs2)cc1)C1CC(c2cccnc2)=NO1 (centres unmarked) [Compound 454]	59%		
CN1N=C(c2ccccc2)CC1c1ccc(NC(=O)C2CC(c3cccnc3)=NO2)cc1 (centres unmarked) [Compound 457]	67%		
CN1N=C(c2ccc(NC(=O)C3CC(c4cccnc4)=NO3)cc2)CC1c1ccccc1 (centres unmarked) [Compound 459]		77%	
O=C(Nc1ccc(-c2n[nH]c3cc(F)ccc23)cc1)C1CC(c2cccnc2)=NO1 (centres unmarked) [Compound 463]	33%		
O=C(Nc1ccc(-n2cnc3ccccc32)cc1)C1CC(c2cccnc2)=NO1 (centres unmarked) [Compound 464]		85%	
Cn1nc(-c2ccc(NC(=O)C3CC(c4cccnc4)=NO3)cc2)c2ccc(F)cc21 (centres unmarked) [Compound 465]			% Inhibition of T cell blast formation [4]: 83%
O=C(Nc1ccc(-c2noc3cc(F)ccc23)cc1)C1CC(c2cccnc2)=NO1 (centres unmarked) [Compound 466]			% Inhibition of T cell blast formation [4]: 82%
Cc1nc2ccccc2n1-c1ccc(NC(=O)C2CC(c3cccnc3)=NO2)cc1 (centres unmarked) [Compound 467]		82%	
O=C(c1ccc(NC(=O)C2CC(c3cccnc3)=NO2)cc1)c1cccs1 (centres unmarked) [Compound 490]		58%	
O.O=C(c1ccccc1)c1ccc(NC(=O)[C@@H]2CC(c3cccnc3)=NO2)cc1 [Compound 491, (S)-N-(4-benzoylphenyl)-4,5-dihydro-3-(3-pyridinyl)-5-isoxazolecarboxamide (1:1) monohydrate]			% Inhibition of T cell blast formation [2]: 70%
CC(C)=NOC(c1ccccc1)c1ccc(NC(=O)[C@@H]2CC(c3cccnc3)=NO2)cc1 (stereo partly drawn) [Compound 504, (5S)-4,5-dihydro-N-[4-[[[(1-methylethylidene)amino]oxo]phenylmethyl]phenyl]-3-(3-pyridinyl)-5-isoxazolecarboxamide]	75%		
CC(C)OC(=O)OC(c1ccccc1)c1ccc(NC(=O)[C@@H]2CC(c3cccnc3)=NO2)cc1 (some centres unmarked) [Compound 508, [5S(A)]-[4-[[[4,5-dihydro-3-(3-pyridinyl)-5-isoxazolyl]carbonyl]amino]phenyl]phenylmethyl 1-methylethyl carbonic acid (ester)]	70%		
CC(O)(c1ccccc1)c1ccc(NC(=O)C2CC(c3cccnc3)=NO2)cc1 (centres unmarked) [Compound 510, (B1)-4,5-dihydro-N-[4-(1-hydroxy-1-phenylethyl)phenyl]-3-(3-pyridinyl)-5-isoxazolecarboxamide]		76%	
COC(=O)OC(C#N)(c1ccccc1)c1ccc(NC(=O)C2CC(c3cccnc3)=NO2)cc1 (centres unmarked) [Compound 524]		81%	
